The values that follow come from US20240350481A1, “USE OF N-MYRISTOYL TRANSFERASE (NMT) INHIBITORS IN THE TREATMENT OF CANCER, AUTOIMMUNE DISORDERS, AND INFLAMMATORY DISORDERS” (PACYLEX PHARMACEUTICALS INC., priority 2020, published 2024).

Molecules are shown by their SMILES.

In data set [1] the test system is peripheral blood mononuclear cells (PBMCs). The data set is described as follows: PBMC viability assay. The class given is cell-based, human. The following applies: 96 hr. On the procedure: 2 healthy human research volunteers were recruited for PBMC and lymphocytes isolation from a 20 ml blood collection (patient #1: no diagnosis, no treatment; patient #2: no diagnosis, no treatment). Study protocol was approved by the Health Research Ethics Board of Alberta Cancer Committee (Study title: Evaluations of Fatty AcylTransferases (FATs) in fresh blood and blood forming cells; HREBA.CC-17-0624).
Mononuclear cells were isolated from peripheral blood by density gradient centrifugation using Ficoll-Paque (GE Healthcare, PA, USA). Lymphocytes were isolated from whole blood samples using EasySep™ lymphocyte isolation kit (Stemcell Technologies, Vancouver, BC, Canada) as per manufacturer's instructions. PBMC and lymphocytes were cultured in RPMI medium with 10% FBS, 100 U/ml penicillin, 0.1 mg/ml streptomycin. Cells were plated at a concentration of 2×10^6 cells/ml.

For data set [2], the system named is hematological cancer cell lines. The experiment in a line: Viability of hematological cancer cell lines in vitro (assay not given). As to conditions: most hematological cancer cell lines in vitro. The format is cell-based.
Data set [3] relates to BL2 cells. The experiment in a line: Click chemistry, total protein myristoylation. The format is cell-based. As to conditions: 1 hr treatment. On the procedure: Protein from the resulting cell lysates were reacted with 100 μM azido-biotin using click chemistry and processed as described in Yap et al.^47 and Perinpanayagam et al.^33
The test system of data set [4] is EGFP-N-Ras. The data set is described as follows: Palmitoylation of EGFP-N-Ras in COS-7 cells. As to conditions: 10 μM. The class given is cell-based. On the procedure:
The cells pre-treated with inhibitors were then labelled for 4 hrs with 100 μM Alkyne-C16. EGFP-tagged constructs were immunoprecipitated as described and reacted with azido-biotin using click chemistry. Biotinylated-palmitoylated proteins were detected using neutravidin-HRP conjugate and ECL. […] All western blots shown are representative of three independent experiments.

Data set [5] has as its system BL2 and IM9 cells. The data set is described as follows: Calcein viability, PCLX-001 vs dasatinib and ibrutinib. The format is cell-based. The protocol:
Calcein assay consists of measuring the cell viability ratio (live cells/total cells and expressed as % viability). Cells were stained with the Nuclear-ID Blue/Red cell viability reagent (GFP-certified, Enzo Life Sciences) to identify total cells, and dead cells while live cells were stained with Calcein AM (Life Technologies) according to manufacturer's instructions. Cell count was performed using a Cytation 5 Cell Imaging Multi-Mode Reader (Biotek Instruments, Inc.) and analysed by Biotek Gen5 Data Analysis software (version 2.09).

Data set [6] concerns BL2 xenografts. The experiment in a line: BL2 xenograft, tumor growth. The class given is in vivo, mouse. An excerpt:
BL2 xenograft study at Jackson Laboratory: One hundred five (105) 6 week old female NOD.CB17-Prkdc scid/J (NOD scid, Stock #001303) mice were transferred to the in vivo research laboratory in Sacramento, CA. The mice were ear notched for identification and housed in individually and positively ventilated polysulfone cages with HEPA filtered air at a density of 5 mice per cage. Initially cages were changed every two weeks. The animal room was lighted entirely with artificial fluorescent lighting, with a controlled 12 hour light/dark cycle (6 am to 6 pm light). The normal temperature and relative humidity ranges in the animal rooms were 20-26° C. and 30-70%, respectively. The animal rooms were set to have up to 15 air exchanges per hour. Filtered tap water, acidified to a pH of 2.5 to 3.0, and standard lab chow were provided ad libitum.
(§1) The dose volume was 10 mL/kg.
(§2) TGI (%)=(Vcontrol−Vtreated)/(Vcontrol−Vnitial)*100.

For data set [7], the system named is patient DLBCL3 derived lymphoma xenograft. The data set is described as follows: DLBCL3 patient-derived xenograft, tumor growth. The class given is in vivo, mouse. The following applies: 20 mg/kg subcutaneous daily, 21 days. The protocol:
as §1, §2
The pleural fluid was collected in cold sterile 20% RPMI 1640 medium and neoplastic cells were isolated with Ficoll-Paque Plus (GE Healthcare) and re-suspended in […] (Life Technologies) with 20% foetal bovine serum (Life Technologies, Carlsbad, CA). […] The cell suspension was injected subcutaneously in the flank of 4-6-week-old NODscid mice. When the tumors reached a maximum of 1000 mm^3, the mice were sacrificed, tumors were harvested, and a necropsy was performed. Xenograft tumors were immediately frozen, fixed in formalin, and stored in 90% foetal bovine serum, and 10% dimethyl sulfoxide or placed in RPMI 1640 medium. This process was repeated to produce subsequent generations of patient-derived xenograft models (P2, P3, P4, . . . ). To evaluate the maintenance of the morphology and main characteristics of the tumor of origin, formalin-fixed, paraffin-embedded tissue sections from patient tumor samples and xenografts of all established patient-derived xenograft models were stained with haematoxylin and eosin. These sections were also immunostained to measure the expression of various markers. A clinical pathologist reviewed all the slides. […]
In general terms: A xenograft is tissue or cells of one species grown in another, often human tumour cells in immunodeficient mice.

Data set [8] in a line: T cell viability by flow cytometry. The format is cell-based. The following applies: human, purified T cells from healthy donors; for viability at 4 days, 20 nM: Drug 20 nM; for viability at 4 days, 100 nM: Drug 100 nM; for viability at 4 days, 500 nM: Drug 500 nM. The protocol: Human peripheral blood mononuclear cells (PBMC) and purified T cells from healthy donors were purchased from […] Technologies (CA). Cells (7.5×10^6/ml) were cultured in the RPMI supplementing with 10% heat-inactivated fetal bovine serum (vWR), 1% penicillin/streptomycin (SigmaMillipore), 1% sodium pyruvate, and 1% non-essential amino acids (Gibco) in 24 well plates in the presence of 100 IU/ml interleukin 2 ([…] Technologies or HIV reagent program (managed by ATCC).
Then, cells were induced with T cell activator ([…]) in the presence of the drugs for 2 more days. After 4 days, the viability of treated T cells was analyzed using Flow cytometry. The supernatants for both PBMC and T cells were collected for further analysis.
In general terms: A flow cytometer gives signals particle by particle.

The conditions of data set [9]: Mouse IV; cited from earlier work.

Broadly, the IC50 is the point on the concentration scale where inhibition reaches its midpoint. By TGI is commonly meant the reduction of tumour growth relative to the control group. The low end stands for a weaker effect on the tumour, the high end for a stronger effect on the tumour. The viability is a read-out of living cells in per cent, often relative to untreated cells. A high value points to better survival. On to `Cc1c(N[S+](=O)([O-])c2c(Cl)cc(-c3ccnc(N4CCNCC4)c3)cc2Cl)c(CC(C)C)nn1C` [PCLX-001], for which the “decrease in PBMC survival” value in data set [1] (0.1 μM) is reported as approximately 50%. Besides, the “concentration endured by the surviving PBMCs” value in data set [1] is not above 10 µM. The compound further gave an IC50 in data set [2] of 50 to 100 nM. In addition, in [3], the “concentration required to decrease myristoylation” value was approximately 0.1 µM. Further, in data set [4], the “palmitoylation of EGFP-N-Ras” value is given as “does not inhibit”. Besides, in [5] (BL2 cells, 0.1 and 1.0 μM, 48 hours), the cell death result was “less than 25%”. Moreover, the “viability of treated cells” value in [5] (at concentrations that are becoming cytotoxic) is reported as “at least 75%”. Further, the tumor regression in data set [6] (20 mg/kg daily, by day 9) is given as 42.5%; in [6] (56 mg/kg daily, 13 days) it was 100%; in data set [6] (60 mg/kg daily, 13 days), 100%. The same compound yielded a TGI in [7] of 66%. Also, the viability at 4 days, 20 nM in data set [8] (T cells viability (#1)) amounted to 9%; in data set [8] (T cells viability (#2)), 66%; in data set [8] (T cells viability (#3)), 76%. Also, the viability at 4 days, 100 nM worked out at 8% in [8] (T cells viability (#1)), 60% in data set [8] (T cells viability (#2)) and 71% in data set [8] (T cells viability (#3)). The values for the viability at 4 days, 500 nM in data set [8] (T cells viability (#1)), in data set [8] (T cells viability (#2)) and in data set [8] (T cells viability (#3)) were 10%, 62% and 68%, respectively. Also, the Clearance in data set [9] is 3 mL/min/kg.
